The structures appear in SMILES notation.

Common to all, as to type: cell-based
One experiment has as its system Toledo cells. In words: Cell proliferation assay, Toledo cells (MTS, 72 h). The note with it: Homo sapiens, Toledo cells, MTS, read-out: Toledo IC50. The method, boiled down: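 Toledo cells (30000/well, RPMI-1640 with 10% FBS) were preincubated for 4 h. They were then exposed to nine compound concentrations from 10000 to 1.5 nM for 72 h at 37 °C, 5% CO2. MTS was added for 2 h and absorbance read at 490 nm to give IC50.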

The next experiment concerns RS4;11-BCL-2 G101V cells. Put plainly: Cell proliferation assay, engineered RS4;11 cells stably overexpressing BCL-2 G101V (MTS, 168 h). The following applies: Homo sapiens, RS4-11, 168 h, read-out: RS4, 11 BCL2- G101V. The procedure, abridged: (§1)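 Proliferation read-out: MTS for exactly 2 h, then absorbance at 490 nm, with IC50 derived from the fit. Before this, engineered RS4;11 lines (BCL-2 G101V, F104L; 5000 cells/well) were exposed 168 h at 37 °C to serially diluted compound, final 1.4–10000 nM.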

A further experiment deals with RS4;11-BCL-2 F104L cells. Put plainly: Cell proliferation assay, engineered RS4;11 cells stably overexpressing BCL-2 F104L (MTS, 168 h). The following applies: Homo sapiens, read-out: RS4, 11 BCL2-F104L. The procedure, abridged: as §1

As for `CC(C)c1ccccc1[C@@H]1CCCN1C1CC2(CCN(c3ccc(C(=O)NS(=O)(=O)c4cc5c(c([N+](=O)[O-])c4)N[C@@H]([C@H]4CC[C@](C)(O)CC4)CO5)c(Oc4cc5cc[nH]c5nc4OCCN4CCC4)c3)CC2)C1` (single isomer, unassigned) [Example D-61, 2-((6-(2-(azetidin-l-yl)ethoxy)-1H-pyrrolo[2,3-b]pyridin-5-yl)oxy)-N-(((S)-3-((1r,4S)-4-hydroxy-4-methylcyclohexyl)-5-nitro-3,4-dihydro-2H-benzo[b][1,4]oxazin-7-yl)sulfonyl)-4-(2-((R or S)-2-(2-isopropylphenyl)pyrrolidin-1-yl)-7-azaspiro[3.5]nonan-7-yl)benzamide], the IC50 was found to be 1 nM in the experiment with Toledo cells, 1 nM in the experiment with RS4;11-BCL-2 G101V cells and 11 nM in the experiment with RS4;11-BCL-2 F104L cells.
In the case of `COc1nc2[nH]cc(F)c2cc1Oc1cc(N2CCC3(CC2)CN([C@H]2CCC[C@H]2c2ccccc2C(C)C)C3)ccc1C(=O)NS(=O)(=O)c1cnc(NC[C@H]2CC[C@](C)(O)CC2)c([N+](=O)[O-])c1` (single isomer, unassigned) [Example A-152, 2-((3-fluoro-6-methoxy-1H-pyrrolo [2,3-b]pyridin-5-yl)oxy)-N-((6-(((1r, 4r)-4-hydroxy-4-methylcyclohexyl)methyl)amino)-5-nitropyridin-3-yl) sulfonyl)-4-(2-((1S,2S or 1R,2R)-2-(2-isopropylphenyl)cyclo-pentyl)-2,7-diazaspiro[3.5]nonan-7-yl) benzamide], the IC50 in the experiment with Toledo cells amounted to 1 nM; with RS4;11-BCL-2 G101V cells it was 40 nM; in the experiment with RS4;11-BCL-2 F104L cells, 9 nM.
The corresponding values for `CC(C)c1ccccc1[C@@H]1CCC[C@@H]1N1CC2(CCN(c3ccc(C(=O)NS(=O)(=O)c4cnc(NC[C@H]5CC[C@](C)(O)CC5)c([N+](=O)[O-])c4)c(Oc4cc5c(F)c[nH]c5nc4Cl)c3)CC2)C1` (single isomer, unassigned) [Example A-151, 2-((6-chloro-3-fluoro-1H-pyrrolo[2,3-b]pyridin-5-yl)oxy)-N-((6-((((1r,4r)-4-hydroxy-4-methylcyclohexyl)methyl)amino)-5-nitropyridin-3-yl)sulfonyl)-4-(2-((1S,2S or 1R,2R)-2-(2-isopropylphenyl)cyclo-pentyl)-2,7-diazaspiro[3.5]nonan-7-yl)_ benzamide] are 1 nM, 3 nM and 1 nM.
The matching figures for `CCOc1nc2[nH]cc(F)c2cc1Oc1cc(N2CCC3(CC2)CC(N2CCC[C@H]2c2ccccc2C(C)C)C3)ccc1C(=O)NS(=O)(=O)c1cc2c(c([N+](=O)[O-])c1)N[C@@H]([C@H]1CC[C@](C)(O)CC1)CO2` (single isomer, unassigned) [Example D-85, 2-((6-ethoxy-3-fluoro-1H-pyrrolo [2,3-b]pyridin-5-yl)oxy)-N-(((S)-3-((1r,4S)-4-hydroxy-4-methylcyclohexyl)-5-nitro-3,4-dihydro-2H-benzo[b][1,4]oxazin-7-yl)sulfonyl)-4-(2-((R or S)-2-(2-isopropylphenyl)pyrrolidin-1-yl)-7-azaspiro[3.5]nonan-7-yl)benzamide]: 1 nM, 28 nM and 5 nM.
The matching figures for `CC(C)c1ccccc1[C@@H]1CCCN1C1CC2(CCN(c3ccc(C(=O)NS(=O)(=O)c4cc5c(c([N+](=O)[O-])c4)N[C@@H]([C@H]4CC[C@](C)(O)CC4)CO5)c(Oc4cc5cc[nH]c5nc4OC[C@@H]4COCCN4)c3)CC2)C1` (single isomer, unassigned) [Example D-214, N-(((S)-3-((1r,4S)-4-hydroxy-4-methylcyclohexyl)-5-nitro-3,4-dihydro-2H-benzo[b][1,4]oxazin-7-yl)sulfonyl)-4-(2-((R or S)-2-(2-isopropylphenyl)pyrrolidin-1-yl)-7-azaspiro[3.5]nonan-7-yl)-2-((6-(((S)-morpholin-3-yl)methoxy)-1H-pyrrolo[2,3-b]pyridin-5-yl)oxy)benzamide]: 1 nM, 1 nM and 1 nM.
On to `CC(C)c1ccccc1[C@@H]1CCCN1C1CC2(CCN(c3ccc(C(=O)NS(=O)(=O)c4cc5c(c([N+](=O)[O-])c4)N[C@@H]([C@H]4CC[C@](C)(O)CC4)CO5)c(Oc4cc5cc[nH]c5nc4OC[C@@H]4COCCO4)c3)CC2)C1` (single isomer, unassigned) [Example D-251, 2-((6-(((S)-1,4-dioxan-2-yl)methoxy)-1H-pyrrolo[2,3-b]pyridin-5-yl)oxy)-N-(((S)-3-((1r,4S)-4-hydroxy-4-methylcyclohexyl)-5-nitro-3,4-dihydro-2H-benzo[b][1,4]oxazin-7-yl)sulfonyl)-4-(2-((R or S)-2-(2-isopropylphenyl)pyrrolidin-1-yl)-7-azaspiro[3.5]nonan-7-yl)benzamide], for which the IC50 in the experiment with Toledo cells came to 1 nM; with RS4;11-BCL-2 G101V cells, 6 nM; with RS4;11-BCL-2 F104L cells, 1 nM.
`CC(C)c1ccccc1[C@@H]1CCCN1C1CC2(CCN(c3ccc(C(=O)NS(=O)(=O)c4cc5c(c([N+](=O)[O-])c4)N[C@@H]([C@H]4CC[C@](C)(O)CC4)CO5)c(Oc4cc5cc[nH]c5nc4OC[C@H]4COCCN4)c3)CC2)C1` (single isomer, unassigned) [Example D-216, N-(((S)-3-((1r,4S)-4-hydroxy-4-methylcyclohexyl)-5-nitro-3,4-dihydro-2H-benzo[b][1,4]oxazin-7-yl)sulfonyl)-4-(2-((R or S)-2-(2-isopropylphenyl)pyrrolidin-1-yl)-7-azaspiro[3.5]nonan-7-yl)-2-((6-(((R)-morpholin-3-yl)methoxy)-1H-pyrrolo[2,3-b]pyridin-5-yl)oxy)benzamide]: the IC50 with Toledo cells, in the experiment on RS4;11-BCL-2 G101V cells and in the experiment with RS4;11-BCL-2 F104L cells was 1 nM throughout.
For the compound `CC(C)c1ccccc1[C@@H]1CCCN1C1CC2(CCN(c3ccc(C(=O)NS(=O)(=O)c4cc5c(c([N+](=O)[O-])c4)N[C@@H]([C@H]4CC[C@](C)(O)CC4)CO5)c(Oc4cc5cc[nH]c5nc4OC[C@@H]4COCCN4C)c3)CC2)C1` (single isomer, unassigned) [Example D-135, N-(((S)-3-((1r,4S)-4-hydroxy-4-methylcyclohexyl)-5-nitro-3,4-dihydro-2H-benzo[b][1,4]oxazin-7-yl)sulfonyl)-4-(2-((R or S)-2-(2-isopropylphenyl)pyrrolidin-1-yl)-7-azaspiro[3.5]nonan-7-yl)-2-((6-(((S)-4-methylmorpholin-3-yl)methoxy)-1H-pyrrolo[2,3-b]pyridin-5-yl)oxy)benzamide], the IC50 in the experiment with Toledo cells, with RS4;11-BCL-2 G101V cells and in the experiment on RS4;11-BCL-2 F104L cells was 1 nM in each case.
With `CC(C)c1ccccc1[C@@H]1CCCN1C1CC2(CCN(c3ccc(C(=O)NS(=O)(=O)c4cc5c(c([N+](=O)[O-])c4)N[C@@H]([C@H]4CC[C@](C)(O)CC4)CO5)c(Oc4cc5c(F)c[nH]c5nc4OC4CCN(C)CC4)c3)CC2)C1` (single isomer, unassigned) [Example D-286, 2-((3-fluoro-6-((1-methylpiperidin-4-yl)oxy)-1H-pyrrolo[2,3-b]pyridin-5-yl)oxy)-N-(((S)-3-((1r,4S)-4-hydroxy-4-methylcyclohexyl)-5-nitro-3,4-dihydro-2H-benzo[b] [1,4]oxazin-7-yl)sulfonyl)-4-(2-((R or S)-2-(2-isopropylphenyl)pyrrolidin-1-yl)-7-azaspiro[3.5]nonan-7-yl)benzamide], the IC50 in the experiment with Toledo cells, in the experiment on RS4;11-BCL-2 G101V cells and in the experiment on RS4;11-BCL-2 F104L cells was 1 nM throughout.

The values above are taken from US20230159527A1, “COMPOUNDS AS BCL-2 INHIBITORS” (Fochon Pharmaceuticals, Ltd., priority 2020, published 2023).
